Experiment: Spontaneous CO release from suspensions (gas chromatography, TCD)
Type: physicochemical
Conditions: dark; for Equivalents of CO released, H2O pH = 2.13: suspension in H2O pH 2.13, 37° C.; for Equivalents of CO released, H2O pH = 8.3: suspension in H2O pH 8.3, 37° C.; for Equivalents of CO released, RPMI: suspension in RPMI with 10% FBS; for Equivalents of CO released, RPMI / CO equivalents (average ± standard deviation) / Equivalents of CO released, Olive oil: 37° C.; for CO equivalents (average ± standard deviation): suspension in RPMI, eight independent assays; for Equivalents of CO released, Olive oil: suspension in olive oil
Protocol: CO detection was carried out by Gas Chromatography using a thermal conductivity detector (TCD) for the quantification of CO and CO2. The experiments were done under an initial atmosphere of reconstituted air, free of CO and CO2. […] […] Samples were withdrawn with gas-tight Hamilton syringes after homogenization of the head-space at given time intervals, preferably 2 hours, 4 hours and 6 hours. […] The volumes of CO released are usually in the range between 0.5-3 mL.
As a possible result of the use of suspensions, the number of CO equivalents released in RPMI varied slightly. As an example of the possible variations, the average of eight independent assays done with suspensions of Compound I.1 is given in Table 2.

## O=[C][Mo]([Br])([C]=O)([C]=O)([C]=O)[C]=O [Compound I.1]
2 hours
  Equivalents of CO released, H2O pH = 2.13: 0.98 equivalents of CO
  Equivalents of CO released, H2O pH = 8.3: 1.24 equivalents of CO
  Equivalents of CO released, RPMI: 1.82 equivalents of CO
  CO equivalents (average ± standard deviation): 1.82 ± 0.01 CO equivalents
  Equivalents of CO released, Olive oil: 0.08 equivalents of CO
4 hours
  Equivalents of CO released, H2O pH = 2.13: 1.00 equivalents of CO
  Equivalents of CO released, H2O pH = 8.3: 1.03 equivalents of CO
  Equivalents of CO released, RPMI: 2.16 equivalents of CO
  CO equivalents (average ± standard deviation): 2.16 ± 0.13 CO equivalents
  Equivalents of CO released, Olive oil: 0.25 equivalents of CO
6 hours
  Equivalents of CO released, H2O pH = 2.13: 0.93 equivalents of CO
  Equivalents of CO released, H2O pH = 8.3: 0.98 equivalents of CO
  Equivalents of CO released, RPMI: 2.27 equivalents of CO
  CO equivalents (average ± standard deviation): 2.27 ± 0.21 CO equivalents
  Equivalents of CO released, Olive oil: 0.53 equivalents of CO
0.5 hours
  CO equivalents (average ± standard deviation): 0.64 ± 0.11 CO equivalents
1 hour
  CO equivalents (average ± standard deviation): 1.56 ± 0.13 CO equivalents
3 hours
  CO equivalents (average ± standard deviation): 2.42 ± 0.38 CO equivalents
5 hours
  CO equivalents (average ± standard deviation): 2.43 ± 0.39 CO equivalents
7 hours
  CO equivalents (average ± standard deviation): 2.51 ± 0.00 CO equivalents
24 hours
  CO equivalents (average ± standard deviation): 2.40 ± 0.00 CO equivalents

Source: US20070207993A1, “Molybdenum carbonyl complexes for treating rheumatoid arthritis and other inflammatory diseases” (Alfama - Investigacao e Desenvolvimetno De Productos …, priority 2005, published 2007)
